Values joined by “and” are separate entries in the source; they are usually repeats but may differ in a detail not shown here. Equal values may be shown once.
What was measured:
[1] = target: Banner PD-seeded α-synuclein fibrils (Homo sapiens (Human), UniProt P37840); assay: Homologous competition radioligand binding assay, PD-seeded fibrils
Method: The equilibrium dissociation constant (Kd) for a series of compounds was determined using direct radioactive competitive binding assays (homologous or heterologous) with either recombinant α-synuclein fibrils or brain tissue homogenates from AD cases.
Recombinant protein was produced in E. coli using protocols based on previously described methods for α-synuclein [Giasson, B. I., et al., “Mutant and wild type human alpha-synucleins assemble into elongated filaments with distinct morphologies in vitro,” 1999, J Biol. Chem., 274:7619-7622; Huang, C., et al., “A new method for purification of recombinant human alpha-synuclein in Escherichia coli,” 2005, Protein Expr Purif, 42:173-177; Yu, L., et al, “Synthesis and in vitro evaluation of á-synuclein ligands,” 2012, Bioorg. Med. Chem., 20:4625-4634] and tau [Li, W., et al., “Characterization of two VQIXXK motifs for tau fibrillization in vitro,” 2006, Biochemistry, 45:15692-15701]. BL21(DE3)RIL E. coli were transformed with a pRK172 bacterial expression plasmid containing the human α-synuclein coding sequence. […]. Overnight cultures were centrifuged at 3,900×g for 10 min at 25° C. and the bacterial pellets were resuspended by gentle vortexing in 20 ml osmotic shock buffer (30 mM Tris-HCl, 2 mM EDTA, 40% Sucrose, pH 7.2) and then incubated at room temperature for 10 min. The cell suspension was then centrifuged at 8,000×g for 10 min at 25° C. and the pellet was resuspended in 22.5 ml cold H2O before adding 9.4 μl 2 M MgCl2 to each tube. The suspension was incubated on ice for 3 min prior to centrifugation at 20,000×g for 15 min at 4° C. After the supernatant was transferred to a fresh tube, streptomycin was added to a final concentration of 10 mg/ml and centrifuged at 20,000×g for 15 min at 4° C. The supernatant from this step was collected and dithiothreitol (DTT) and Tris-HCl pH 8.0 were added to final concentrations of 1 mM and 20 mM respectively, before boiling for 10 min to precipitate heat-sensitive proteins, which were pelleted at 20,000×g for 15 min at 4° C. The supernatant was collected and filtered through a 0.45 μm surfactant-free cellulose acetate filter (Corning) before loading onto a 1 ml DEAE Sepharose column equilibrated in 20 mM Tris-HCl pH 8.0, 1 mM EDTA, and 1 mM DTT. The DEAE column was washed with 20 mM Tris-HCl pH 8.0, 1 mM EDTA, 1 mM DTT before eluting α-synuclein protein in 20 mM Tris-HCl pH 8.0 buffer with 1 mM EDTA, 1 mM DTT and 0.3 M NaCl. Purified α-synuclein protein was dialyzed overnight in 10 mM Tris-HCl pH 7.6, 50 mM NaCl, 1 mM DTT.
Purified recombinant α-synuclein monomer (2 mg/ml) was incubated in 20 mM Tris-HCl, pH 8.0, 100 mM NaCl for 72 h at 37 C with shaking at 1000 rpm in an Eppendorf Thermomixer. […] The concentration of α-synuclein monomer in the supernatant was determined in a BCA protein assay according to the manufacturer's instructions, using a bovine serum albumin (BSA) standard curve. The measured decrease in α-synuclein monomer concentration was used to determine the concentration of fibrils in the 72 h fibril reaction mixture. […]
These direct binding assays used a fixed concentration of either fibrils or PD/AD tissue and the radioligand (e.g., [^18F]28) and varying concentration ranges of corresponding homologous non-radiolabeled standard reference compound. […] Reactions were incubated at 37° C. for 1 h before quantifying bound radioligand. […]

[2] = MicroPET studies in the brain of nonhuman primate; format: in vivo; conditions: male adult cynomolgus macaca
Method: 9.93 mCi of [^18F]TZ61-44 was injected into a male adult cynomolgus macaca (9.25 Kg) 10.57 mCi of [^11C]TZ55-107 was injected into was injected into a male adult cynomolgus macaca (9.40 Kg) A simplified reference tissue model (SRTM) and spatially-constraint linear regression algorithm was used to generate R1 and DVR images (FIGS. 18A and 18B).
FIGS. 19A and 19B graphically depict the uptake of labeled TZ55-107 and TZ61-44 in the animals. [^18F]TZ61-44 had highest cortical uptake (SUV) of ˜3.48 at 4 min and the uptake ratio at 4 min versus 120 min reached ˜4.2 (FIG. 19A); [^11C]TZ55-107 had highest cortical uptake of ˜6.40 at 4 min, and the uptake ratio at 4 min versus 120 min reached ˜6.30 (FIG. 19B).

[3] = Experimental Log P; format: physicochemical

Question: For `COc1ccc(Nc2ccc3cc(OCCF)ccc3n2)cn1` [TZ61-44], which Kd ([1]; 25 nM Banner PD-seeded fibrils) is on record?
Answer: 5.4 nM and 9.7 nM and 12 nM and 25 nM and 26 nM

Question: And the Kd ([1]; 75 nM Banner PD-seeded fibrils)?
Answer: 30 nM

Question: And the “highest cortical uptake (SUV)” value ([2]; brain cortex, at 4 min)?
Answer: ~3.48 SUV

Question: And the “uptake ratio at 4 min versus 120 min” value ([2]; brain cortex)?
Answer: ~4.2

Question: And the “blood brain barrier penetration” value [2]?
Answer: able to penetrate the blood brain barrier

Question: What about the logP [3] of the same molecule?
Answer: 1.97 ± 0.4
